For 40 compounds, IC50 and melting point results are on record in patent publication US7511041B2, “Fused azole-pyrimidine derivatives” (Bayer Pharmaceuticals Corporation, priority 2002, dated 2009).

As a reminder, the melting point is the temperature, or range, at which the solid turns liquid.

Where two headings read alike, the source gives them in different places.

Data set [1] concerns the target T1, Recombinant human PI3Kγ (full length human PI3K p110γ) (Homo sapiens, UniProt P48736).
T1 construct: full length human PI3K p110γ fused with a His6-tag at the C-terminus; His6 (C); purchased ALEXIS BIOCHEMICALS #201-055-C010; host or cells: S. frugiperda 9 insect cells
As to the kind of experiment: Kinase assay of PI3Kγ (solid-phase lipid kinase assay). It counts as biochemical. From the text: [Determination of IC50 Values of Compounds in Kinase Assay of PI3Kγ]
Chemicals and Assay Materials
LABORATORIES (Toronto, Canada). Recombinant human PI3Kγ (full length human PI3K p110γ fused with a His6-tag at the C-terminus expressed in S. frugiperda 9 insect cells) was obtained from ALEXIS BIOCHEMICALS (#201-055-C010; San Diego, Calif.). […] BIOTECH (Buckinghamshire, UK) and ROCHE DIAGNOSTICS (Mannheim, Germany), respectively. Scintillation cocktails and MicroScint PS™ were purchased from PACKARD (Meriden, Conn.). Maxisorp™ plates were purchased from NALGE NUNC INTERNATIONAL K.K. (Tokyo, Japan). All other chemicals not further specified were from WAKO PURE CHEMICALS (Osaka, Japan).
Solid-Phase Lipid Kinase Assay
The plates were subsequently air-dried by incubation for at least 2 hours in a fume hood. The reaction was set up by mixing 25 μl/well of assay buffer 2× (100 mM MOPSO/NaOH, 0.2 M NaCl, pH 7.0, 8 mM MgCl2, 2 mg/ml BSA (fatty acid-free)) and 50 ng/well PI3Kγ in the lipid pre-coated plate and 10× test compounds were added in 2% DMSO. The reaction was started by adding 20 μl/well of ATP mix (final 10 μM ATP; 0.05 μCi/well [γ^33P]ATP). After incubation at RT for 2 hours, the reaction was terminated by adding 50 μl/well stop solution (50 mM EDTA, pH 8.0). The plate was then washed twice with Tris-buffered saline (TBS, pH 7.4). MicroScint PS™ (PACKARD) scintillation mix was added at 100 μl/well, and radioactivity was counted by using a TopCount™ (PACKARD) scintillation counter.
The inhibition percent at each concentration of compound was calculated, and IC50 values were determined from the inhibition of curve.

Setting [2] is: Table 1, isozyme not given, read-out: in vitro.
Where [3] appears, read: in vitro PI3K-γ inhibitory activity, class symbols A-D, read-out: in vitro PI3K-gamma.

T1 sequence (P48736 whole entry, the tested form may be a part): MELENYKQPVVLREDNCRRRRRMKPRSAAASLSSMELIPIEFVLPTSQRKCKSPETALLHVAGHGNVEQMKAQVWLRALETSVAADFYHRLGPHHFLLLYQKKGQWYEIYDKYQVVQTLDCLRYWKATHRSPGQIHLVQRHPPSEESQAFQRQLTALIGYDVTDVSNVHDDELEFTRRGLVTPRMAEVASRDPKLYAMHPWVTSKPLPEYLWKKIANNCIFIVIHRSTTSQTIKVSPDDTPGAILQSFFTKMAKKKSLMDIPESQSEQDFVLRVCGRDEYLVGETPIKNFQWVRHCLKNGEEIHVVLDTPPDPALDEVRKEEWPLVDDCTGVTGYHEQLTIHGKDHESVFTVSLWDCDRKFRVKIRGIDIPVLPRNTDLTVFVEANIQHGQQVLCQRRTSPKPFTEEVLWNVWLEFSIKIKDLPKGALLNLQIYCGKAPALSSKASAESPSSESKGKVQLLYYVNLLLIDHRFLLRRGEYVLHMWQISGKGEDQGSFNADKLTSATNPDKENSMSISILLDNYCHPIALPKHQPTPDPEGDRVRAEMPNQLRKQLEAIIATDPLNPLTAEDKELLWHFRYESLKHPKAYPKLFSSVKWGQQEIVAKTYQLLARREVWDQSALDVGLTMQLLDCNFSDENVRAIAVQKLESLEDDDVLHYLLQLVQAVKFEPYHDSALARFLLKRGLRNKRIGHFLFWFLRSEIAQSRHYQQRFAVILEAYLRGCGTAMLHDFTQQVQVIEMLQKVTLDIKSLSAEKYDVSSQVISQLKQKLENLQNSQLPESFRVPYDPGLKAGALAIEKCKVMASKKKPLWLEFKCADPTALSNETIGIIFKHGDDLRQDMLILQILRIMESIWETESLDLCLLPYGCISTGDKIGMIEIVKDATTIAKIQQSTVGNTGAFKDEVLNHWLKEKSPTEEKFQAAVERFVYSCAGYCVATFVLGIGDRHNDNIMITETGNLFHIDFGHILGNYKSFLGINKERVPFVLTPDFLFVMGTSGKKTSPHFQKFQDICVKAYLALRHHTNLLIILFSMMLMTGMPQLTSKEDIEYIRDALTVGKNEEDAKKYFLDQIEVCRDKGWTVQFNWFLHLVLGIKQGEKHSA

As to `COCOc1ccc2c(c1OC)N=C(/C=C(\O)c1cccnc1)N1CCN=C21` [Example 1-3, 2-[7-Methoxy-8-(methoxymethoxy)-2,3-dihydroimidazo[1,2-c]quinazolin-5-yl]-1-pyridin-3-ylethylenol], the melting point lay in the range of 215 to 216 °C. In data set [1] (activity class of IC50, read-out: In vitro PI3K-γ inhibitory activity), the IC50 is 100 to 500 nM. With `COc1c(O)ccc2c1N=C(/C=C(\O)c1cccnc1)N1CCN=C21.Cl` [Example 1-9], the melting point was 245 °C (dec.). For the same compound, in data set [1] (setting [2]), the IC50 was below 100 nM.

As to `COc1ccc2c(c1OC)N=C(/C=C(\O)c1cccnc1)N1CCN=C21` [Example 1-10], the melting point lay in the range of 269 to 270 °C. In data set [1] (setting [2]), the IC50 is below 100 nM.

On to `COc1ccc2c(c1OC)N=C(/C=C(\O)c1ccc(NC(C)=O)nc1)N1CCN=C21` [Example 1-12], for which the melting point was 270 °C (dec.). Besides, the IC50 in data set [1] (setting [2]) was below 100 nM. Compound `CCOc1ccc2c(c1OC)N=C(/C=C(\O)c1cccnc1)N1CCN=C21` [Example 1-13] came in with a melting point of 267 to 268 °C. In addition, the IC50 in data set [1] (setting [2]) was below 100 nM.

As for `COc1c(OC(C)C)ccc2c1N=C(/C=C(\O)c1cccnc1)N1CCN=C21` [Example 1-14], the melting point lay within 252 to 253 °C. In data set [1] (setting [2]), the IC50 was below 100 nM. Turning to `COc1c(OCC2CC2)ccc2c1N=C(/C=C(\O)c1cccnc1)N1CCN=C21` [Example 1-15], the melting point was 254 °C (dec.). For the same compound, the IC50 in data set [1] (setting [2]) lay in the range of 100 to 500 nM. The compound `COc1c(OCCO)ccc2c1N=C(/C=C(\O)c1cccnc1)N1CCN=C21` [Example 1-16] displayed a melting point of 264 to 265 °C. Also, the IC50 in data set [1] (setting [2]) is below 100 nM. Regarding `COc1c(OCC(=O)OC(C)(C)C)ccc2c1N=C(/C=C(\O)c1cccnc1)N1CCN=C21` [Example 1-18], the melting point was 184 to 186 °C. For the same compound, in data set [1] (setting [2]), the IC50 was 100 to 500 nM. For `COc1c(OCCN(C)C)ccc2c1N=C(/C=C(\O)c1cccnc1)N1CCN=C21` [Example 1-19] the same measures were 183 to 184 °C and 100 to 500 nM. As for `COc1c(OCCN2CCCCC2)ccc2c1N=C(/C=C(\O)c1cccnc1)N1CCN=C21` [Example 1-20], the melting point lay in the range of 162 to 163 °C. In addition, in data set [1] (setting [2]), the IC50 lay within 100 to 500 nM. Turning to `COc1c(OCCN2CCCC2)ccc2c1N=C(/C=C(\O)c1cccnc1)N1CCN=C21` [Example 1-21], the melting point lay within 204 to 205 °C. For the same compound, the IC50 in data set [1] (setting [2]) was below 100 nM. In the case of `COc1c(OCC(=O)O)ccc2c1N=C(/C=C(\O)c1cccnc1)N1CCN=C21.Cl` [Example 1-22], the melting point is 240 °C (dec.). Moreover, in data set [1] (setting [2]), the IC50 is below 100 nM. With `COc1c(OCC(N)=O)ccc2c1N=C(/C=C(\O)c1cccnc1)N1CCN=C21` [Example 1-23], the melting point fell in the range of 297 to 298 °C. Moreover, the IC50 in data set [1] (setting [2]) was below 100 nM.

With `CNC(=O)COc1ccc2c(c1OC)N=C(/C=C(\O)c1cccnc1)N1CCN=C21.Cl` [Example 1-25], the melting point is 240 °C (dec.). In addition, in data set [1] (setting [2]), the IC50 was below 100 nM. Regarding `COc1c(OCC(=O)NC(C)C)ccc2c1N=C(/C=C(\O)c1cccnc1)N1CCN=C21.Cl` [Example 1-26], the melting point was 245 °C (dec.). Also, the IC50 in data set [1] (setting [2]) is below 100 nM.

`COc1c(OCC(=O)N(C)C)ccc2c1N=C(/C=C(\O)c1cccnc1)N1CCN=C21` [Example 1-27] gave a melting point of 241 to 242 °C. The IC50 in data set [1] (setting [2]) is below 100 nM. Take `COc1c(OCC(=O)N2CCOCC2)ccc2c1N=C(/C=C(\O)c1cccnc1)N1CCN=C21` [Example 1-29]: the melting point amounted to 235 °C. In addition, in data set [1] (setting [2]), the IC50 was below 100 nM. Take `COc1c(OCC(=O)NCc2ccc(F)cc2)ccc2c1N=C(/C=C(\O)c1cccnc1)N1CCN=C21.Cl` [Example 1-31]: the melting point was in the range of 230 to 231 °C. Besides, the IC50 in data set [1] (setting [2]) is 100 to 500 nM. Compound `COc1c(C)ccc2c1N=C(/C=C(\O)c1ccc(NC(C)=O)nc1)N1CCN=C21.Cl` [Example 1-33] had a melting point of 273 °C. Further, in data set [1] (setting [2]), the IC50 is below 100 nM. As for `COc1c(C)ccc2c1N=C(/C=C(\O)c1ccc3[nH]cnc3c1)N1CCN=C21` [Example 1-34], the melting point was above 285 °C. Besides, the IC50 in data set [1] (setting [2]) is below 100 nM. Regarding `COc1ccc2c(c1OCCN1CCOCC1)N=C(/C=C(\O)c1cccnc1)N1CCN=C21` [Example 1-36], the melting point stood at 197 °C. For the same compound, in data set [1] (setting [2]), the IC50 was below 100 nM. `COc1ccc2c(c1OCCN1CCOCC1)N=C(/C=C(\O)c1ccc(NC(C)=O)nc1)N1CCN=C21.Cl` [Example 1-38] yielded a melting point of 260 °C. Further, the IC50 in data set [1] (setting [2]) is below 100 nM. For `Cc1ccc2c(c1OCCN1CCOCC1)N=C(/C=C(\O)c1cccnc1)N1CCN=C21` [Example 1-39] the same measures were 217 °C and 100 to 500 nM.

In the case of `CC(=O)Nc1ccc(/C(O)=C/C2=Nc3c(ccc(C)c3OCCN3CCOCC3)C3=NCCN23)cn1.Cl` [Example 1-41], the melting point is 271 °C. Moreover, the IC50 in data set [1] (setting [2]) was below 100 nM. For `COc1cc(OC)c2c(c1)C1=NCCN1C(/C=C(\O)c1cccnc1)=N2` [Example 1-42] the same measures were 218 °C and below 100 nM. `CC(=O)Nc1ccc(/C(O)=C/C2=Nc3c(C)cc(Br)cc3C3=NCCN23)cn1.Cl` [Example 1-44]: the melting point is above 290 °C. In data set [1] (setting [2]), the IC50 lay in the range of 100 to 500 nM. For `Cc1cc(Br)c2c(c1)C1=NCCN1C(/C=C(\O)c1cccnc1)=N2.Cl` [Example 1-45], the melting point is above 290 °C. For the same compound, in data set [1] (setting [2]), the IC50 lay in the range of 100 to 500 nM. The compound `CC(=O)Nc1ccc(/C(O)=C/C2=Nc3c(Br)cc(C)cc3C3=NCCN23)cn1.Cl` [Example 1-46] had a melting point above 285 °C. Moreover, the IC50 in data set [1] (setting [2]) is below 100 nM.

`Cc1cc(Br)c2c(c1)C1=NCCN1C(/C=C(\O)c1ccc3[nH]cnc3c1)=N2` [Example 1-47] returned a melting point above 285 °C. The IC50 in data set [1] (setting [2]) was 100 to 500 nM. In turn, `COc1cc2c(cc1OC)C1=NCCN1C(/C=C(\O)c1ccc(C)nc1)=N2` [Example 1-49] returned a melting point of 200 to 204 °C. Besides, the IC50 in data set [1] (setting [2]) was below 100 nM. In the case of `COc1cc2c(cc1OC)C1=NCCN1C(/C=C(\O)c1ccc(C)nc1)=N2.Cl` [Example 1-50], the melting point was 260 °C (dec.). The IC50 in data set [1] (setting [2]) was in the range of 100 to 500 nM.

`COc1cc2c(cc1OC)C1=NCCN1C(/C=C(\O)c1ccc(NC(C)=O)nc1)=N2.Cl` [Example 1-51] registered a melting point of 275 to 280 °C. Moreover, in data set [1] (setting [2]), the IC50 lay within 100 to 500 nM. Turning to `CCNc1ccc(/C(O)=C/C2=Nc3cc(OC)c(OC)cc3C3=NCCN23)cn1` [Example 1-53], the IC50 in data set [1] (setting [2]) was 100 to 500 nM.

Consider `O/C(=C\C1=Nc2cc(C(F)(F)F)ccc2C2=NCCN12)c1cccnc1` [Example 1-188], for which the IC50 in data set [1] (setting [2]) was in the range of 500 to 2000 nM. Take `COc1cc2c(cc1OC)C1=NCCN1C(NC(=O)c1cccnc1)=N2` [Example 2-53]: the IC50 in data set [1] (in vitro PI3K-γ inhibitory activity, class symbols, read-out: in vitro PI3K-gamma) lay within 100 to 500 nM. Regarding `CCC(=O)NC1=Nc2ccccc2C2=NCCN12` [Example 2-327], the IC50 in data set [1] (setting [3]) was above 2000 nM. As for `CC(C)(C)OC(=O)N1CCCCC1C(=O)NC1=Nc2ccccc2C2=NCCN12` (stereo not shown) [Example 2-336], in data set [1] (setting [3]), the IC50 is above 2000 nM. As for `CC(C)(C)OC(=O)N1CCC(C(=O)NC2=Nc3ccccc3C3=NCCN23)CC1` [Example 2-340], the IC50 in data set [1] (setting [3]) is above 2000 nM. For the compound `COc1cc2c(cc1OC)C1=NCCN1C(NC(=O)c1ccccc1)=N2` [Example 2-342], in data set [1] (setting [3]), the IC50 was 500 to 2000 nM.
